Measurements taken from patent EP0067711A2, “New 1-benzyl-3,4-dihydro-isoquinoline derivative” (CHINOIN Gyogyszer és Vegyészeti Termékek Gyára RT., priority 1981, dated 1982).

Columns and labels:
[1] = tested on: acute coronary insufficiency induced by vasopressine; experiment: anti-angina activity: inhibition of vasopressine-induced acute coronary insufficiency (rise of T-wave on ECG), method of Papp and Szekeres; type: in vivo, rats belonging to the CFY strain; conditions: vasopressine 2 IU/kg i.v., pentobarbital anaesthetized CFY rats; papaverin = 1
[2] = tested on: haemodynamic and cardiovascular system; experiment: general effects on the haemodynamic and cardiovascular system in pentobarbital anaesthetized dogs; type: in vivo; set-up: A. vertebralis flow, Changed value: unit not given here; conditions: 1 mg/kg i.v.
[3] = tested on: electric fibrillation threshold of the auricle and ventricle; experiment: antiarrhythmial effect: change of electric fibrillation threshold in chloralose-urethane anaesthetized cats; type: in vivo; conditions: 1 mg/kg i.v.
Method: The antiarrhythmial effect is determined on chloralose-urethane anaesthetized cats [500/300 mg/kg i.p.] by measuring the changes of the electric fibrillation threshold of the auricle and ventricle respectively [method of Szekeres, Méhes and Papp: Brit. 0. Pharmacol. 17, 167 (1961) and that of Szekeres and Papp: Hdb. exp. Pharmacol. 16/3, 131 (1975) respectively]. The general effects exerted on the haemodynamic and cardiovascular system are tested on pentobarbital anaesthetized dogs (35 mg/kg i.v.).

CCOc1cc(CC2=NCCc3cc(OCC)c(OCC)cc32)ccc1O [Formula VII, 6,7-diethoxy-1-(3-ethoxy-4-hydroxy-benzyl)-3,4-dihydro-isoquinoline, reference compound]
anti-angina activity related to that of papaverin [1]: 1.28 | A. carotis flow, Duration of effect [2]: 12 min | A. carotis flow, Percental difference [2]: -12 | A. carotis resistance, Duration of effect [2]: 15 min | A. femoralis flow, Duration of effect [2]: 11 min | A. femoralis resistance, Duration of effect [2]: 18 min | A. vertebralis flow, Duration of effect [2]: 7 min | A. vertebralis resistance, Duration of effect [2]: 12 min | A. vertebralis resistance, Percental difference [2]: +12 | Arterial blood pressure, Duration of effect [2]: 8 min | Arterial blood pressure, Percental difference [2]: -22 | Contractibility of the left ventricle (dp/dt), Percental difference [2]: -13 | Coronary flow, Duration of effect [2]: 15 min | Coronary flow, Percental difference [2]: +18 | Coronary resistance, Duration of effect [2]: 11 min | Coronary resistance, Percental difference [2]: -22 | Efficiency of cardial function, Duration of effect [2]: 20 min | Efficiency of cardial function, Percental difference [2]: -13 | Frequence volume, Duration of effect [2]: 5 min | Function of the left ventricle, Duration of effect [2]: 13 min | Function of the left ventricle, Percental difference [2]: -19 | Heart frequence/min, Duration of effect [2]: 7 min | Minute volume, Duration of effect [2]: 3 min | Myocardial oxygenization (O2 supply per O2 consumption), Duration of effect [2]: 18 min | Myocardial oxygenization (O2 supply per O2 consumption), Percental difference [2]: +10 | Oxygen consumption of the left ventricle, Duration of effect [2]: 9 min | Total peripherial resistance, Duration of effect [2]: 14 min | Total peripherial resistance, Percental difference [2]: -32 | Efficiency of cardial function, Changed value ([2]; average + S.E., basic value 0.32 ± 0.03): 0.28 ± 0.05 mkg/ml/100 g | Coronary resistance, Changed value ([2]; average + S.E., basic value 1.03 ± 0.10): 1.42 ± 0.22 Hgmm/ml/min/100 g | Myocardial oxygenization (O2 supply per O2 consumption), Changed value ([2]; average + S.E., basic value 1.62 ± 0.06): 1.79 ± 0.10 | A. carotis resistance, Changed value ([2]; average + S.E., basic value 2.04 ± 0.3): 2.19 ± 0.4 Hgmm/ml/min | Function of the left ventricle, Changed value ([2]; average + S.E., basic value 2.74 ± 0.49): 2.22 ± 0.56 mkg/min | A. vertebralis resistance, Changed value ([2]; average + S.E., basic value 3.22 ± 0.61): 3.65 ± 0.32 Hgmm/ml/min | A. femoralis resistance, Changed value ([2]; average + S.E., basic value 3.48 ± 0.45): 3.69 ± 0.68 Hgmm/ml/min | Frequence volume, Changed value ([2]; average + S.E., basic value 8,8 ± 1): 9.5 ± 1.2 mL | Oxygen consumption of the left ventricle, Changed value ([2]; average + S.E., basic value 8.4 ± 0.9): 7.9 ± 1.9 ml/min/100 g | A. femoralis flow, Changed value ([2]; average + S.E., basic value 46 ± 5): 42 ± 5 mL/min | A. vertebralis flow, Changed value ([2]; average + S.E., basic value 54 ± 9): 50 ± 7 | Coronary flow, Changed value ([2]; average + S.E., basic value 73 ± 13): 86 ± 13 ml/min/100 g | A. carotis flow, Changed value ([2]; average + S.E., basic value 91 ± 9): 80 ± 10 mL/min | Arterial blood pressure, Changed value ([2]; average + S.E., basic value 147 ± 9): 115 ± 11 Hgmm | Heart frequence/min, Changed value ([2]; average + S.E., basic value 173 ± 8): 160 ± 9 min⁻¹ | Minute volume, Changed value ([2]; average + S.E., basic value 1500 ± 153): 1466 ± 233 mL/min | Contractibility of the left ventricle (dp/dt), Changed value ([2]; average + S.E., basic value 5625 ± 557): 4883 ± 419 Hgmm/sec | Total peripherial resistance, Changed value ([2]; average + S.E., basic value 7015 ± 238): 4785 ± 275 dyn. sec. cm^-5 | Arterial blood pressure, Duration of effect [3]: 5 min | Arterial blood pressure, Percental difference [3]: -23 | Auricle fibrillation threshold, Duration of effect [3]: 9 min | Auricle fibrillation threshold, Percental difference [3]: +48 | Ventricle fibrillation threshold, Duration of effect [3]: 12 min | Ventricle fibrillation threshold, Percental difference [3]: +43 | Auricle fibrillation threshold, Changed value ([3]; average + S.E., basic value 0.52 ± 0.07): 0.77 ± 0.19 mA | Ventricle fibrillation threshold, Changed value ([3]; average + S.E., basic value 0.70 ± 0.10): 1.00 ± 0.18 mA | Arterial blood pressure, Changed value ([3]; average + S.E., basic value 142 ± 11): 110 ± 16 Hgmm
